Results taken from patent publication US20080103198A1, “METHODS FOR TREATMENT OF COCHLEAR AND VESTIBULAR DISORDERS” (priority 2006, published 2008).

Legend:
PC12 cells = assay: PC12 cell serum withdrawal model (MTS assay); format: cell-based; conditions: control cells = 100%
Source text: Serum withdrawal is a cytotoxic environmental challenge that results in cell death in cultured cell lines as well as in primary cells of various tissue origins, including nerve cells. In particular, pheochromocytoma (PC) 12 cells have been widely employed as an in vitro neuronal cell model for a wide variety of neurodegenerative and cell death related disorders (Muriel, et al, Mitochondrial free calcium levels (Rhod-2 fluorescence) and ultrastructural alterations in neuronally differentiated PC12 cells during ceramide-dependent cell death, J. Comp. Neurol., 2000, 426(2), 297-315; Dermitzaki, et al, Opioids transiently prevent activation of apoptotic mechanisms following short periods of serum withdrawal, J. Neurochem., 2000, 74(3), 960-969; Carlile, et al, Reduced apoptosis after nerve growth factor and serum withdrawal: conversion of tetrameric glyceraldehyde-3-phosphate dehydrogenase to a dimer, Mol. Pharmacol., 2000, 57(1), 2-12).
PC12 cells were cultured in sterile media (RPMI 1640) supplemented with 10% heat-inactivated horse serum and 5% fetal bovine serum (FBS). The culture medium also contained Penicillin-Streptomycin-Neomycin antibiotic (50µg, 50µg, 100µg, respectively). Medium was exchanged every other day and the cells were passed in log phase near confluence.
The control cells were cultured in regular media without any treatment. An enantiomer of Formula 7 or Formula 8 (10µM) was mixed well in the medium and then applied to the cells. For the 2 day assay, an enantiomer of Formula 7 or Formula 8 (10µM) was only applied to the cells once at the time of serum withdrawal. For the 7 day assay, an enantiomer of Formula 7 or Formula 8 (10. mu.M) was applied to the cells at the time of serum withdrawal and every 48 hr thereafter when cells were changed with fresh new serum-free medium. In the serum withdrawal group, the cells were cultured in serum-free medium with no additional enantiomer of Formula 7 or Formula 8. Cell survival was determined by the 3-(4,5-dimethylthiazol-2-yl)-5-(3-carboxy-methoxyphenyl)-2-(4-sulfophenyl)-2H-tetrazolium inner salt (MTS) assay at 2 or 7 days after serum withdrawal.
At the end of the experiment, cells were washed with fresh medium and incubated with MTS solution in a humidified 37° C. with 5% CO2 incubator for 1.5 hr. After the incubation period, the cells were immediately analyzed using a Softmax program (Molecular Devices). […] The assay is based on the cellular conversion of the tetrazolium salt, MTS, into a formazan that is soluble in tissue culture medium and measured directly at 490 nm in 96-well assay plates. The absorbance is directly proportional to the number of living cells in culture. The arbitrary absorbance reading in control cells is expressed as 100% survival rate.

[1] = system: transient cerebral ischemia (MCAO); assay: Transient cerebral ischemia middle cerebral artery occlusion (MCAO) rat model; format: in vivo; conditions: N=12
Procedure: The enantiomer of Formula 7 was investigated in the transient cerebral ischemia middle cerebral artery occlusion (MCAO) rat model (as described in Nagasawa H. and Kogure K., Stroke, 1989, 20, 1037; and, Zea Longa E., Weinstein P. R., Carlson S, and Cummins R., Stroke, 1989, 20, 84) using male Wistar rats at 10 and 100 mg/kg (i.v.). MK 801 (Dizocilpine maleate; CAS Registry number 77086-22-7, a commercially available neuroprotectant compound) was used as a positive control (3 mg/kg, i.p.).
Rats (n=12) were randomly allocated to one of four experimental groups and were anesthetized. Blood flow from the internal carotid artery, anterior cerebral artery and posterior cerebral artery into the middle cerebral artery was blocked by this procedure. One hour after blockage, animals were treated over a 1 hour period with vehicle (administered i.v. over the one hour period), control (administered as a single i.p. dose at the start of the one hour period) and two doses of the enantiomer of Formula 7 (administered i.v. over the one hour period). Two hours after blockage, reperfusion was performed.
The animals were sacrificed and […] coronal sections of each brain were prepared. One in every forty sections (i.e. every […]) from the front to the occipital cortex was used to quantify the extent of the cerebral lesion. Slides were prepared using sections stained (according to the Nissl procedure) with cresyl violet and were examined under a light microscope.
Regional ischemic surface areas in the coronal sections of individual rats were determined according to the presence of cells with morphological changes. The areas of neuronal injury or infarction were measured and then added. The cortex and striatum volume were calculated for each animal (total ischemic surface area×0.8 mm (thickness)).
The mean volumes (.+−.S.E.M.) for each animal randomly assigned to the four experimental groups were compared using one-way ANOVA (one way ANOVA is a statistical method which compares 3 or more unmatched groups) followed by Dunnett's t-test (both methods incorporated in Statview 512+software, BarinPower, Calabasas, Calif., USA).

[2] = Formula 7 10 mg/kg i.v. over 1 hour
[3] = Formula 7 100 mg/kg i.v. over 1 hour

Q: For `NC(=O)OC[C@@H](O)c1ccccc1Cl` [test compound], which “2 Day Survival Rate” value (PC12 cells; 10 µM applied once at serum withdrawal) is on record?
A: 69.4 ± 1.7^1%

Q: What about the “7 Day Survival Rate” value (PC12 cells; 10 µM at serum withdrawal and every 48 hr) of the same molecule?
A: 79.9 ± 4.0^2%

Q: And the “Mean Infarct Volume ± S.E.M., Cortex Volume” value [1, 2]?
A: 201.0 ± 23.9 ^ mm^3

Q: What about the “Mean Infarct Volume ± S.E.M., Striatum” value [1, 2] of the same molecule?
A: 75.9 ± 2.6^ mm^3

Q: What about the “Mean Infarct Volume ± S.E.M., Total” value [1, 2] of the same molecule?
A: 276.9 ± 25.4^ mm^3

Q: What about the “Mean Infarct Volume ± S.E.M., Cortex Volume” value [1, 3] of the same molecule?
A: 98.8 ± 29.5^1 mm^3

Q: And the “Mean Infarct Volume ± S.E.M., Striatum” value [1, 3]?
A: 63.0 ± 5.9^2 mm^3

Q: What about the “Mean Infarct Volume ± S.E.M., Total” value [1, 3] of the same molecule?
A: 161.9 ± 34.3^1 mm^3
